Experimental data: the NIST ThermoML archive (doi:10.1016/j.fluid.2014.05.032)

Experiment: xn = mol fraction of the nth substance listed
Details: Liquid, Constant-volume piezometry

CCO [ethanol] + O
Details	mass density [kg/m3]
292.95 K, 2450 kPa, x1 = 0.073	974.2
292.95 K, 11320 kPa, x1 = 0.073	977.6
292.95 K, 21120 kPa, x1 = 0.073	981.2
292.95 K, 30930 kPa, x1 = 0.073	985
292.95 K, 39230 kPa, x1 = 0.073	988
297.05 K, 2490 kPa, x1 = 0.0163	990.8
297.05 K, 11280 kPa, x1 = 0.0163	993.5
297.05 K, 21070 kPa, x1 = 0.0163	997.5
297.05 K, 30810 kPa, x1 = 0.0163	1003.2
297.05 K, 39170 kPa, x1 = 0.0163	1006.1
298.15 K, 2560 kPa, x1 = 0.0946	965.8
298.15 K, 10120 kPa, x1 = 0.0946	968.6
298.15 K, 20060 kPa, x1 = 0.0946	972.4
298.15 K, 29980 kPa, x1 = 0.0946	976.1
298.15 K, 40030 kPa, x1 = 0.0946	979.8
298.35 K, 2590 kPa, x1 = 0.0343	984.1
298.35 K, 11280 kPa, x1 = 0.0343	987.9
298.35 K, 21300 kPa, x1 = 0.0343	991.9
298.35 K, 31040 kPa, x1 = 0.0343	995.7
298.35 K, 39150 kPa, x1 = 0.0343	998.6
323.15 K, 2570 kPa, x1 = 0.0163	980.6
323.15 K, 2610 kPa, x1 = 0.073	959.3
323.15 K, 2730 kPa, x1 = 0.0946	951.3
323.15 K, 10940 kPa, x1 = 0.073	962.8
323.15 K, 11140 kPa, x1 = 0.0946	954.9
323.15 K, 11390 kPa, x1 = 0.0163	984.4
323.15 K, 20710 kPa, x1 = 0.0946	958.8
323.15 K, 20790 kPa, x1 = 0.073	966.7
323.15 K, 21080 kPa, x1 = 0.0163	988.4
323.15 K, 30360 kPa, x1 = 0.073	970.6
323.15 K, 30890 kPa, x1 = 0.0163	992.3
323.15 K, 32400 kPa, x1 = 0.0946	963.3
323.15 K, 38480 kPa, x1 = 0.0163	995.2
323.15 K, 38600 kPa, x1 = 0.073	973.6
323.15 K, 39810 kPa, x1 = 0.0946	966.2
323.65 K, 2610 kPa, x1 = 0.0343	973.6
323.65 K, 11320 kPa, x1 = 0.0343	977.4
323.65 K, 21200 kPa, x1 = 0.0343	981.4
323.65 K, 30930 kPa, x1 = 0.0343	985.2
323.65 K, 39010 kPa, x1 = 0.0343	988.2
348.15 K, 2730 kPa, x1 = 0.0946	933.7
348.15 K, 3220 kPa, x1 = 0.0163	967.1
348.15 K, 3260 kPa, x1 = 0.0343	959.9
348.15 K, 3330 kPa, x1 = 0.073	943
348.15 K, 10980 kPa, x1 = 0.0163	970.6
348.15 K, 11060 kPa, x1 = 0.073	946.6
348.15 K, 11390 kPa, x1 = 0.0946	937.4
348.15 K, 11590 kPa, x1 = 0.0343	963.5
348.15 K, 20750 kPa, x1 = 0.0163	974.7
348.15 K, 20870 kPa, x1 = 0.073	950.8
348.15 K, 20870 kPa, x1 = 0.0946	941.6
348.15 K, 21160 kPa, x1 = 0.0343	967.5
348.15 K, 29500 kPa, x1 = 0.0163	978.3
348.15 K, 29730 kPa, x1 = 0.0946	945.4
348.15 K, 30400 kPa, x1 = 0.073	955
348.15 K, 30850 kPa, x1 = 0.0343	971.3
348.15 K, 37790 kPa, x1 = 0.0946	948.7
348.15 K, 39600 kPa, x1 = 0.073	958.9
348.15 K, 39860 kPa, x1 = 0.0343	974.7
348.15 K, 39910 kPa, x1 = 0.0163	982.3
373.15 K, 3330 kPa, x1 = 0.0946	908.6
373.15 K, 3370 kPa, x1 = 0.0163	950.2
373.15 K, 3390 kPa, x1 = 0.0343	942.1
373.15 K, 3510 kPa, x1 = 0.073	923.9
373.15 K, 11320 kPa, x1 = 0.0163	953.8
373.15 K, 11320 kPa, x1 = 0.073	927.7
373.15 K, 11390 kPa, x1 = 0.0946	912.8
373.15 K, 11470 kPa, x1 = 0.0343	945.9
373.15 K, 21080 kPa, x1 = 0.073	932.5
373.15 K, 21120 kPa, x1 = 0.0343	950.3
373.15 K, 21160 kPa, x1 = 0.0163	958.3
373.15 K, 21200 kPa, x1 = 0.0946	917.7
373.15 K, 30520 kPa, x1 = 0.0343	954.5
373.15 K, 30600 kPa, x1 = 0.0163	962.5
373.15 K, 30670 kPa, x1 = 0.073	937
373.15 K, 30850 kPa, x1 = 0.0946	922.3
373.15 K, 35700 kPa, x1 = 0.0163	964.6
373.15 K, 37230 kPa, x1 = 0.073	939.9
373.15 K, 39000 kPa, x1 = 0.0343	957.9
373.15 K, 39410 kPa, x1 = 0.0946	927.3
398.15 K, 3510 kPa, x1 = 0.0946	885.8
398.15 K, 3550 kPa, x1 = 0.0343	921.6
398.15 K, 3710 kPa, x1 = 0.0163	930.3
398.15 K, 3710 kPa, x1 = 0.073	901.9
398.15 K, 11430 kPa, x1 = 0.0946	890.4
398.15 K, 11510 kPa, x1 = 0.073	906.2
398.15 K, 11630 kPa, x1 = 0.0163	934.4
398.15 K, 11730 kPa, x1 = 0.0343	925.8
398.15 K, 21160 kPa, x1 = 0.073	911.4
398.15 K, 21200 kPa, x1 = 0.0946	896
398.15 K, 21360 kPa, x1 = 0.0163	939.3
398.15 K, 21530 kPa, x1 = 0.0343	930.7
398.15 K, 30790 kPa, x1 = 0.0163	943.7
398.15 K, 30790 kPa, x1 = 0.073	916.3
398.15 K, 30850 kPa, x1 = 0.0946	901.1
398.15 K, 30930 kPa, x1 = 0.0343	935.2
398.15 K, 37300 kPa, x1 = 0.0343	938.3
398.15 K, 39500 kPa, x1 = 0.073	920.7
398.15 K, 39610 kPa, x1 = 0.0946	905.3
398.15 K, 39890 kPa, x1 = 0.0163	948
423.15 K, 2680 kPa, x1 = 0.0163	906.7
423.15 K, 2680 kPa, x1 = 0.0343	897.3
423.15 K, 2750 kPa, x1 = 0.0946	860.1
423.15 K, 2760 kPa, x1 = 0.073	875.9
423.15 K, 10050 kPa, x1 = 0.0946	863.9
423.15 K, 10170 kPa, x1 = 0.0163	911
423.15 K, 10240 kPa, x1 = 0.0343	901.8
423.15 K, 10710 kPa, x1 = 0.073	881.1
423.15 K, 20110 kPa, x1 = 0.073	887.1
423.15 K, 20200 kPa, x1 = 0.0946	869.5
423.15 K, 20970 kPa, x1 = 0.0163	917
423.15 K, 21070 kPa, x1 = 0.0343	908.1
423.15 K, 30100 kPa, x1 = 0.0946	875.5
423.15 K, 30490 kPa, x1 = 0.073	893
423.15 K, 30570 kPa, x1 = 0.0163	922.4
423.15 K, 30640 kPa, x1 = 0.0343	913.4
423.15 K, 39560 kPa, x1 = 0.0163	927.2
423.15 K, 39680 kPa, x1 = 0.0343	918.2
423.15 K, 39860 kPa, x1 = 0.0946	882.2
423.15 K, 40110 kPa, x1 = 0.073	898.6
448.15 K, 3860 kPa, x1 = 0.0946	831.7
448.15 K, 3960 kPa, x1 = 0.0163	882.3
448.15 K, 4000 kPa, x1 = 0.073	849.3
448.15 K, 4080 kPa, x1 = 0.0343	872.1
448.15 K, 11550 kPa, x1 = 0.0946	837.9
448.15 K, 11920 kPa, x1 = 0.0163	887.5
448.15 K, 11960 kPa, x1 = 0.0343	877.7
448.15 K, 12160 kPa, x1 = 0.073	855.6
448.15 K, 21530 kPa, x1 = 0.0163	893.7
448.15 K, 21690 kPa, x1 = 0.073	862.7
448.15 K, 21690 kPa, x1 = 0.0946	845.8
448.15 K, 22180 kPa, x1 = 0.0343	884.2
448.15 K, 30990 kPa, x1 = 0.0946	852.6
448.15 K, 31010 kPa, x1 = 0.0343	889.8
448.15 K, 31050 kPa, x1 = 0.0163	899.4
448.15 K, 31170 kPa, x1 = 0.073	869.2
448.15 K, 37210 kPa, x1 = 0.073	873
448.15 K, 38340 kPa, x1 = 0.0163	903.5
448.15 K, 40060 kPa, x1 = 0.0343	894.8
448.15 K, 40140 kPa, x1 = 0.0946	858.6
